Reference: patent publication US20230286973A1, “PROTEIN SECRETION INHIBITORS” (KEZAR LIFE SCIENCES, priority 2020, published 2023)

Experiments:
[1] = test system: PD1-ss+10aa/Gaussia Luciferase; assay: Dox-Induced PD1-ss-Gluc Assay; type: cell-based; details: 24 hr Dox induction; 293FRT/TO cells; read-out: 24 hr Dox Inducible PD1ssGluc 293FRT/TO: Mean IC50
Method in brief: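 Flp-In 293 T-REx, stable line; Tet-regulated PD1-ss+10aa fused to Gaussia luciferase; plated day prior; cpd + doxycycline in DMSO/media; 37 °C, 5% CO2.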

[2] = test system: TNFα-FL/Gaussia Luciferase; assay: Dox Induced TNFα-FL-Gluc Assay; type: cell-based; details: for IC50: 24 hr Dox induction, 293FRT/TO cells, read-out: 24 hr Dox Inducible TNFaFLGluc 293FRT/TO: Mean IC50; for 24 hr Dox Inducible TNFaFLGluc 293FRT/TO: TNF/PD1: ratio of TNFaFLGluc IC50 to PD1ssGluc IC50
Method in brief: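 Doxycycline-inducible Gaussia luciferase-tagged full-length TNFα (1-233) was expressed in stable Flp-In 293 T-REx cells. Compounds were co-added with doxycycline and incubated at 37 °C, 5% CO2.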

[3] = test system: HER3-ss+4aa/Gaussia Luciferase; assay: Dox-Induced Her3-ss-Gluc Assay; type: cell-based; details: 24 hr Dox induction; 293FRT/TO cells; read-out: 24 hr Dox Inducible Her3(ss + 4)Gluc 293FRT/TO: Mean IC50
Method in brief: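 Reporter line: Flp-In 293 T-REx, T-REx-regulated HER3-ss+4aa fused to Gaussia luciferase. Compound co-added with doxycycline after overnight plating, 37° C., 5% CO2.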

[4] = test system: IL-2-FL/Gaussia Luciferase; assay: Dox Induced IL2-FL-Gluc Assay; type: cell-based; details: for IC50: 24 hr Dox induction, 293FRT/TO cells, read-out: 24 hr Dox Inducible IL2FLGluc 293FRT/TO: Mean IC50; for 24 hr Dox Inducible IL2FLGluc 293FRT/TO: IL2/PD1: ratio of IL2FLGluc IC50 to PD1ssGluc IC50
Method in brief: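 Doxycycline induces an IL-2(1-153)–Gaussia luciferase fusion in a stable Flp-In 293 T-REx line. Compound exposure runs alongside induction at 37° C.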

[5] = test system: multiple myeloma cell line NCI-H929; assay: H929 Cell Viability Assay; type: cell-based, human; details: Homo sapiens, NCI-H929, 48 h, NCI-H929 cells, Celltiter-Glo
Method in brief: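 Viability is scored by CellTiter-Glo luminescence following a 48-hour treatment at 37° C. Data for structures shown without stereochemistry refer to stereoisomer mixtures.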

[6] = test system: multiple myeloma cell line U266B1; assay: U266 Cell Viability Assay; type: cell-based, human; details: Homo sapiens, U-266, 48 h, U266B1 cells, Celltiter-Glo
Method in brief: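 Viability is measured as luciferase signal from CellTiter-Glo following a 48-hour incubation with compound at 37° C. under 5% CO2. Where structures lack drawn stereochemistry, values refer to stereoisomer mixtures.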

[7] = Liver Microsome Stability Assay (rat); details: rat liver microsomes, with NADPH, 1.0 uM compound
Description: (§1) Stability of a compound was assessed in the presence of liver microsomes from various sources—mouse, rat, monkey and human liver microsomes. 1.0 uM compound, 0.4% DMSO in 0.1 M Potassium Phosphate with 1.0 mg/mL liver microsomes, were incubated at 37° C. with or without 1 mM NADPH. The samples were quenched at 0, and 30 minutes.

[8] = Liver Microsome Stability Assay (mouse); details: mouse liver microsomes, with NADPH, 1.0 uM compound
Description: as §1

[9] = Liver Microsome Stability Assay (human); details: human liver microsomes, with NADPH, 1.0 uM compound
Description: as §1

[10] = Liver Microsome Stability Assay (monkey); details: monkey liver microsomes, with NADPH, 1.0 uM compound
Description: as §1

| IC50 [1] [nM] | IC50 [2] [nM] | IC50 [3] [nM] | IC50 [4] [nM] | EC50 [5] [nM] | EC50 [6] [nM] | Liver Microsome Stability (Multiple Species): Rat - % Remaining after 30 min w/NADPH [7] [%] | Liver Microsome Stability (Multiple Species): Mouse - % Remaining after 30 min w/NADPH [8] [%] | Liver Microsome Stability (Multiple Species): Human - % Remaining after 30 min w/NADPH [9] [%] | Liver Microsome Stability (Multiple Species): Monkey - % Remaining after 30 min w/NADPH [10] [%] | SMILES | 24 hr Dox Inducible TNFaFLGluc 293FRT/TO: TNF/PD1 [2] | 24 hr Dox Inducible IL2FLGluc 293FRT/TO: IL2/PD1 [4] |
| --- | --- | --- | --- | --- | --- | --- | --- | --- | --- | --- | --- | --- |
| 30.9 | 508 | 48.1 | 64.7 | 1110 | > 25000 | 42.9 | 20.4 | 11.8 | 6.3 | CN(C)C(=O)N1CC(Oc2ccc(N3CCC[C@@H]3c3csc(NC(=O)c4cccn4Cc4ccnc(F)c4)n3)cc2)C1 [Compound A131, (R)-N-(4-(1-(4-((1-(dimethylcarbamoyl)azetidin-3-yl)oxy)phenyl)pyrrolidin-2-yl)thiazol-2-yl)-1-((2-fluoropyridin-4-yl)methyl)-1H-pyrrole-2-carboxamide] | 16.4 | 2.1 |
| 57.3 | 1060 | 95 | 105 | 2520 | > 25000 | 47.1 | 34.6 | 15.1 | 8.42 | CS(=O)(=O)N1CC(Oc2ccc(N3CCC[C@@H]3c3csc(NC(=O)c4cccn4Cc4ccnc(F)c4)n3)cc2)C1 [Compound A132, (R)-1-((2-fluoropyridin-4-yl)methyl)-N-(4-(1-(4-((1-(methylsulfonyl)azetidin-3-yl)oxy)phenyl)pyrrolidin-2-yl)thiazol-2-yl)-1H-pyrrole-2-carboxamide] | 18.5 | 1.8 |
| 61 | 893 | 64.2 | 81.7 | 2010 | > 25000 | 1.42 | 0.98 | 0.61 | 0.15 | CC(=O)N1CCC(Oc2ccc(N3CCC[C@@H]3c3csc(NC(=O)c4cccn4Cc4ccnc(F)c4)n3)c(C#N)c2)CC1 [Compound A133, (R)-N-(4-(1-(4-((1-acetylpiperidin-4-yl)oxy)-2-cyanophenyl)pyrrolidin-2-yl)thiazol-2-yl)-1-((2-fluoropyridin-4-yl)methyl)-1H-pyrrole-2-carboxamide] | 14.6 | 1.3 |
| 27.3 | 526 | 47.8 | 42.4 | 849 | > 25000 | 13.6 | 2.18 | 19.3 | 13.5 | O=C(Nc1nc([C@H]2CCCN2c2ccc(OCCO)cc2)cs1)c1cccn1Cc1ccnc(F)c1 [Compound A134, (R)-1-((2-fluoropyridin-4-yl)methyl)-N-(4-(1-(4-(2-hydroxyethoxy)phenyl)pyrrolidin-2-yl)thiazol-2-yl)-1H-pyrrole-2-carboxamide] | 19.3 | 1.6 |
| 15.2 | 512 | 34.2 | 52.5 | 692 | > 25000 | 57.9 | 56.5 | 67.1 | 32.1 | NC(=O)N1CCC(Oc2ccc(N3CCC[C@@H]3c3csc(NC(=O)c4cccn4Cc4ccnc(F)c4)n3)cc2)CC1 [Compound A135, (R)-4-(4-(2-(2-(1-((2-fluoropyridin-4-yl)methyl)-1H-pyrrole-2-carboxamido)thiazol-4-yl)pyrrolidin-1-yl)phenoxy)piperidine-1-carboxamide] | 33.6 | 3.4 |
| 59.6 | 1010 | 86.7 | 186 | 2410 | > 25000 | 15.7 | 2.63 | 15.6 | 0.44 | CNC(=O)N1CCC(Oc2ccc(N3CCC[C@@H]3c3csc(NC(=O)c4cccn4Cc4ccnc(F)c4)n3)cc2)CC1 [Compound A136, (R)-4-(4-(2-(2-(1-((2-fluoropyridin-4-yl)methyl)-1H-pyrrole-2-carboxamido)thiazol-4-yl)pyrrolidin-1-yl)phenoxy)-N-methylpiperidine-1-carboxamide] | 16.9 | 3.1 |
| 32.2 | 566 | 51.5 | 61.4 | 948 | > 25000 | 24.2 | 1.78 | 4.35 | 2.57 | CN(C)C(=O)N1CCC(Oc2ccc(N3CCC[C@@H]3c3csc(NC(=O)c4cccn4Cc4ccnc(F)c4)n3)cc2)CC1 [Compound A137, (R)-4-(4-(2-(2-(1-((2-fluoropyridin-4-yl)methyl)-1H-pyrrole-2-carboxamido)thiazol-4-yl)pyrrolidin-1-yl)phenoxy)-N,N-dimethylpiperidine-1-carboxamide] | 17.6 | 1.9 |
| 125 | 1600 | 167 | 172 | 2570 | > 25000 | 37.2 | 25.2 | 25.1 | 6.25 | O=C(Nc1nc([C@H]2CCCN2c2ccc(OC3CCS(=O)(=O)CC3)cc2)cs1)c1cccn1Cc1ccnc(F)c1 [Compound A138, (R)-N-(4-(1-(4-((1,1-dioxidotetrahydro-2H-thiopyran-4-yl)oxy)phenyl)pyrrolidin-2-yl)thiazol-2-yl)-1-((2-fluoropyridin-4-yl)methyl)-1H-pyrrole-2-carboxamide] | 12.8 | 1.4 |
| 20.3 | 460 | 37.1 | 58.3 | 687 | > 25000 | 41.9 | 26 | 30.1 | 10.7 | O=C(Nc1nc([C@H]2CCCN2c2ccc(OC3CCN(C(=O)CO)CC3)cc2)cs1)c1cccn1Cc1ccnc(F)c1 [Compound A139, (R)-1-((2-fluoropyridin-4-yl)methyl)-N-(4-(1-(4-((1-(2-hydroxyacetyl)piperidin-4-yl)oxy)phenyl)pyrrolidin-2-yl)thiazol-2-yl)-1H-pyrrole-2-carboxamide] | 22.6 | 2.9 |
